Read-outs that look alike come from different tables or passages of the source.
How the values were obtained:
[1] = molecular target: T1, KRAS G12C (Homo sapiens, UniProt P01116, G12C); test: KRAS G12C NEA-HTRF experiment (SOS1-catalyzed displacement of GDP by GTP); type: biochemical
T1 construct: purchased Reactionbiology
Source text: Raw materials and instruments: KRAS G12C (his-tag) purchased from Reactionbiology; batch number 3496; SOS1 purchased from Reactionbiology; batch number: 3501; GTP purchased from Sigma; article number: G8877; batch number: SLBV1450; Tris-HC1 purchased from Sigma; EDTA purchased from absin; article number: abs42017668; batch number: JE20; NaCl purchased from Sigma; article number: 55886; batch number: SLBW4193; MgCl2 purchased from Shyuanye; article number: R21455; batch number: L07S9G69806; HEPES purchased from Life Technologies; article number: 15630-080; batch number: 2037042; DTT purchased from Thermo Fisher; article number: R0862; batch number: 00608918; Triton X-100 purchased from Sigma; article number: T8787-100 ML; batch number: SLBW7103; DY647-labeled GDP purchased from Jena Bioscience; article number: NU-840-647P1; batch number: BM019-045; Anti-6H1S-Tb purchased from Cisbio; article number: 61H12TLA; batch number: 13A; Bradford Assay Kit purchased from Thermo Fisher; article number: 23246; batch number: UG287474; white opaque 96-well plate purchased from Cisbio; article number: 66PL96025; batch number: N°06; NAP-5 column purchased from GE Healthcare; article number: 17085301; batch number: 16995164; mircoplate reader purchased from PerkinElmer; model: Envision MLD2105-0020; equipment number 1050369. The effect of compounds on SOS1-catalyzed displacement of GDP by GTP on KRAS protein was examined using a homogeneous time-resolved fluorescence (HTRF) method. 30 μM 6×his-tagged KRAS G12C recombinant protein was incubated with 80 μM fluorescent dye DY647-labeled GDP in labeling buffer (1 mM DTT, 7.5 mM EDTA, 25 mM Tris-HCl, 45 mM NaCl) at 20° C. in the dark for 2 hours, purified using NAP-5 column, and then protein quantification was performed with Bradford Assay Kit after purification to determine the concentration of KRAS […] 3.16-fold gradient concentration stock solution of 1000× compound was prepared with DMSO, and diluted 250-fold to 4× compound stock solution with reaction buffer (40 mM HEPES, 10 mM MgCl2, 1 mM DTT, 0.002% Triton X-100). KRAS G12C-GDP/Tb working solution (40 nM KRAS […] Tb) and SOS1/GTP working solution (0.2 μM SOS1, 200 μM GTP) were prepared using the reaction buffer. A white opaque 96-well plate was taken, and 5 μL of 4× compound stock solution and 10 μL of KRAS G12C-GDP/Tb working solution were added to each well. 5 μL of reaction buffer instead of 4x compound stock solution was used in the control well. After incubation in the dark for 15 minutes at 20° C., 5μL of SOS1/GTP working solution was added thereto, and the fluorescence value (excitation wavelength: 320 nm, emission wavelength: 615 nm and 665 nm) was read after incubating at 20° C. in the dark for 2 hours. Another T0 group was set up with 10 μL reaction buffer+10 μL KRAS G12C-GDP/Tb working solution, and the fluorescence value was read directly by the microplate reader. The fluorescence signal ratio RLU=(665 nm signal/615 nm signal)×10^4; and the compound inhibition rate IR (%)=(RLUcompound-RLUcontrol)/(RLUT0-RLUcontrol)×100% were calculated. The IC50 value was calculated by fitting the gradient dilution concentration of compound and the corresponding inhibition rate with the four-parameter method. The NEA activity of the compounds prepared in the above embodiments of the present disclosure was 0.0001 μM to 1 μM; the inhibitory activity of some compounds on KRAS G12C mutant MIA PaCa-2 cells was 0.001 μM to 0.5 μM or 0.001 μM to 0.1 μM.

[2] = test system: A549 cells (KRAS G12S mutant); test: Cell proliferation inhibition experiment, 3D spheroid, CellTiter-Glo, A549; type: cell-based, human; conditions: A549 (KRAS G12S mutant) 3D spheroid, 5 days with compound, CellTiter-Glo, read-out: A549 IC50
Procedure, shortened: (§1)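 Cells seeded in 2% FBS medium in spheroid plates (800 H358 or 400 A549 per well), grown overnight to form 3D spheroids, then exposed to 3.16-fold compound dilutions (0.1% DMSO) for 5 days. CellTiter-Glo luminescence gave inhibition vs DMSO and medium blanks; IC50 by four-parameter fit.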

[3] = test system: KRAS G12C mutant NCI-H358 cells; test: Cell proliferation inhibition experiment, 3D spheroid, CellTiter-Glo, NCI-H358; type: cell-based, human; conditions: NCI-H358 (KRAS G12C mutant) 3D spheroid, 5 days with compound, CellTiter-Glo, read-out: H358 IC50
Procedure, shortened: as §1

[4] = test system: KRAS G12C mutant MIA PaCa-2 cells; test: Cell proliferation inhibition experiment, 3D spheroid, CellTiter-Glo, MIA PaCa-2; type: cell-based, human; conditions: 3D cell model in 384-well spheroid plate, 5 days, CellTiter-Glo, read-out: MIA-PaCa2 IC50
Procedure, shortened: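 200 MIA PaCa-2 cells/well grown overnight as 3D spheroids, then exposed to 3.16-fold compound dilutions (0.1% DMSO final) for 5 days. Viability read by CellTiter-Glo luminescence; inhibition calculated against DMSO and medium-only controls, and IC50 fitted by four-parameter model.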

[5] = Homo sapiens, MIA PaCa-2, 120 h

T1 sequence (P01116 1-188 isoform P01116-2 G12C): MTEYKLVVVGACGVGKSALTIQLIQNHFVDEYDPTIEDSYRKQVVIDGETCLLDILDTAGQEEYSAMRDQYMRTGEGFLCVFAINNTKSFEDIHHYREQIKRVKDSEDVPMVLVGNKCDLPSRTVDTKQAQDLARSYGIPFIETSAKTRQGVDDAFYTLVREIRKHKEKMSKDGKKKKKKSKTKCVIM

SMILES	IC50 [1] [µM]	IC50 ([2]; Homo sapiens, A549, 120 h) [µM]	IC50 ([3]; Homo sapiens, NCI-H358, 120 h) [µM]	IC50 [4, 5] [µM]	IC50 [2] [µM]	IC50 [3] [µM]	IC50 [4] [µM]
C=CC(=O)N1CCN2C(=O)c3c(N4CCCC45CCOC5)nc(-c4c(O)cccc4F)c(Cl)c3OC[C@H]2C1 (stereo partly drawn) [Z58, (6aR)-8-acryloyl-4-chloro-3-(2-fluoro-6-hydroxyphenyl)-1-(7-oxa-1-azaspiro[4.4]nonan-1-yl)-6,6a,7,8,9,10-hexahydro-12H-pyrazino[2,1-c]pyrido[3,4-f][1,4]oxazepin-12-one]		> 5	0.145	0.237			
C=CC(=O)N1CCN2C(=O)c3c(N4CCC5(CCOC5)C4)nc(-c4c(O)cccc4F)c(Cl)c3OC[C@H]2C1 (stereo partly drawn) [Z59, (6aR)-8-acryloyl-4-chloro-3-(2-fluoro-6-hydroxyphenyl)-1-(2-oxa-7-azaspiro[4.4]nonan-7-yl)-6,6a,7,8,9,10-hexahydro-12H-pyrazino[2,1-c]pyrido[3,4-f][1,4]oxazepin-12-(6aH)-one]					> 30	0.019	0.027
C=CC(=O)N1CCN2C(=O)c3c(N4CC5CN(C)CC5C4)nc(-c4c(O)cccc4F)c(Cl)c3OC[C@H]2C1 (stereo partly drawn) [Z60, (6aR)-8-acryloyl-4-chloro-3-(2-fluoro-6-hydroxyphenyl)-1-(5-methylhexahydropyrrolo[3,4-c]pyrrol-2 (1H)-yl)-6,6a,7,8,9,10-hexahydro-12H-pyrazino[2,1-c]pyrido[3,4-f][1,4]oxazepin-12-one]		> 30	0.125	0.094			
C=CC(=O)N1CCN2C(=O)c3c(N4C[C@H]5CC[C@@H](C4)O5)nc(-c4c(O)cccc4F)c(Cl)c3OC[C@H]2C1 [Z62, (6aR)-8-acryloyl-4-chloro-1-((1R,5S)-8-oxa-3-azabicyclo[3.2.1]octan-3-yl)-3-(2-fluoro-6-hydroxyphenyl)-6,6a,7,8,9,10-hexahydro-12H-pyrazino[2,1-c]pyrido[3,4-f][1,4]oxazepin-12-one]		> 10	0.023	0.029			
C=CC(=O)N1CCN2C(=O)c3c(O[C@@H]4CCN(C)C4)nc(-c4c(O)cccc4F)c(Cl)c3OC[C@H]2C1 [Z64, (6aR)-8-acryloyl-4-chloro-3-(2-fluoro-6-hydroxyphenyl)-1-(((R)-1-methylpyrrolidin-3-yl)oxy)-6,6a,7,8,9,10-hexahydro-12H-pyrazino[2,1-c]pyrido[3,4-f][1,4]oxazepin-12-one]		> 30	0.287	0.268			
C=CC(=O)N1CCN2C(=O)c3c(O[C@H]4CCN(C)C4)nc(-c4c(O)cccc4F)c(Cl)c3OC[C@H]2C1 [Z65, (6aR)-8-acryloyl-4-chloro-3-(2-fluoro-6-hydroxyphenyl)-1-(((S)-1-methylpyrrolidin-3-yl)oxy)-6,6a,7,8,9,10-hexahydro-12H-pyrazino[2,1-c]pyrido[3,4-f][1,4]oxazepin-12-one]		> 30	0.051	0.038			
C=CC(=O)N1CCN2C(=O)c3c(N4CCOCC4(C)C)nc(-c4c(O)cccc4F)c(Cl)c3OC[C@H]2C1 [Z70, (6aR)-8-acryloyl-4-chloro-1-(3,3-dimethylmorpholino)-3-(2-fluoro-6-hydroxyphenyl)-6,6a,7,8,9,10-hexahydro-12H-pyrazino[2,1-c]pyrido[3,4-f][1,4]oxazepin-12-one]		> 10	0.025	0.052			
C=CC(=O)N1CCN2Cc3c(NC(C)(C)C)nc(-c4c(O)cccc4F)c(Cl)c3OC[C@H]2C1 [Z71, 1-((6aR)-1-(tert-butylamino)-4-chloro-3-(2-fluoro-6-hydroxyphenyl)-6a,7,9,10-tetrahydro-12H-pyrazino[2,1-c]pyrido[3,4-f][1,4]oxazepin-8(6H)-yl)prop-2-en-1-one]		> 10	0.275	0.467			
C=CC(=O)N1CCN2C(=O)c3c(-c4ccnn4C(C)C)nc(-c4c(O)cccc4F)c(Cl)c3OC[C@H]2C1 [Z77, (6aR)-8-acryloyl-4-chloro-3-(2-fluoro-6-hydroxyphenyl)-1-(1-isopropyl-1H-pyrazol-5-yl)-6,6a,7,8,9,10-hexahydro-12H-pyrazino[2,1-c]pyrido[3,4-f][1,4]oxazepin-12-one]		> 20	0.157	0.365			
C=CC(=O)N1CCN2C(=O)c3c(N4CCN(C5COC5)CC4C)nc(-c4c(O)cccc4F)c(Cl)c3OC[C@H]2C1 (stereo partly drawn) [Z239, (6aR)-8-acryloyl-4-chloro-3-(2-fluoro-6-hydroxyphenyl)-1-(2-methyl-4-(oxetan-3-yl)piperazin-1-yl)-6,6a,7,8,9,10-hexahydro-12H-pyrazino[2,1-c]pyrido[3,4-f][1,4]oxazepin-12-one]		13.8	0.0229	0.0416			

The remaining lines, values ahead:

IC50 [1] [µM]	IC50 ([2]; Homo sapiens, A549, 120 h) [µM]	IC50 ([3]; Homo sapiens, NCI-H358, 120 h) [µM]	IC50 [4, 5] [µM]	IC50 [2] [µM]	IC50 [3] [µM]	IC50 [4] [µM]	SMILES
0.389							C=CC(=O)N1CCN2C(=O)c3c(N4C[C@H](O)CC4(C)C)nc(-c4c(F)ccc(F)c4O)c(F)c3OC[C@H]2C1 (single isomer, unassigned) [Z449-2]
> 10							C=CC(=O)N1CCN2C(=O)c3c(N4CCN(C)[C@H](C)[C@@H]4C)nc(-c4ccccc4F)c(Cl)c3OC[C@H]2C1 (single isomer, unassigned) [Z465-2]
	9.48	0.085	0.098				C=CC(=O)N1CCN2C(=O)c3c(N4CCSCC4)nc(-c4c(O)cccc4F)c(Cl)c3OC[C@H]2C1 [Z264, (6aR)-8-acryloyl-4-chloro-3-(2-fluoro-6-hydroxyphenyl)-1-thiomorpholino-6,6a,7,8,9,10-hexahydro-12H-pyrazino[2,1-c]pyrido[3,4-f][1,4]oxazepin-12-one]
0.033							C=CC(=O)N1CCN2C(=O)c3c(N4Cc5nncn5CC4C)nc(-c4c(O)cccc4F)c(Cl)c3OC[C@H]2C1 (stereo partly drawn) [Z277-1, (6aR)-8-acryloyl-4-chloro-3-(2-fluoro-6-hydroxyphenyl)-1-(6-methyl-5,6-dihydro-[1,2,4]triazolo [4,3-a]pyrazin-7(8H)-yl)-6,6a,7,8,9,10-hexahydro-12H-pyrazino[2,1-c]pyrido[3,4-f][1,4]oxazepin-12-one]
0.226							C=CC(=O)N1CCN2C(=O)c3c(N4CC5CCC(=O)N5C[C@@H]4C)nc(-c4c(O)cccc4F)c(Cl)c3OC[C@H]2C1 (stereo partly drawn) [Z330-1, (6aR)-8-acryloyl-4-chloro-3-(2-fluoro-6-hydroxyphenyl)-1-((3S)-3-methyl-6-oxohexahydropyrrolo[1,2-c]pyrazin-2 (1H)-yl)-6,6a,7,8,9,10-hexahydro-12H-pyrazino[2,1-c]pyrido[3,4-f][1,4]oxazepin-12-one]

Source: patent US20230203060A1 (GENFLEET THERAPEUTICS (SHANGHAI) INC., priority 2020, published 2023)
